Series [1] in a line: Lethality of peptide alone in mice. The class given is in vivo.
Series [2] deals with Gram-negative bacteria. Put plainly: MIC range over a broad range of Gram-negative bacteria. The class given is cell-based. The note with it: broad range of Gram-negative bacteria (Table 9). On the procedure:
CEME and CEMA were able to kill a broad range of Gram-negative bacteria with MICs ranging from 1-16 μg/ml (Table 9). These bacteria included many of the life-threatening gram-negative pathogens associated with septicemia and endotoxic shock.
(§1) Bacteria included the Bort strain of E. coli (Bortolussi, et al., Inf. Immun., 25:293, 1979) that was originally derived from a case of neonatal meningitis, and which is therefore considered a relevant pathogenic strain to study, and the 0111:B4 strain of E. coli (kindly provided by Dr. D. Morrison) which is a standard source of endotoxin. (Kelly, et al., Inf. Immun., 59:4491, 1991). In addition, P. aeruginosa PA01 strain H103, P. aeruginosa M2, P. aeruginosa K799, Eschericha coli UB 1005, Enterobacter cloacae 218S, Salmonella typhimurium MS7953s, Klebsiella pneumoniae ATCC 13883, Xanthomonas maltophilia ATCC 13637, and Acinetobacter calcoacetious 8193 were employed. LPS was obtained from E. coli Bort by the technique of Westphal and Jann, (Westphal, et al., Acad. Press, Inc. NY., 5:83) and from P. aeruginosa H103 by the method of Darveau and Hancock, (Darveau, et al., J. Bacteriol, 155:831, […]). E. coli 0111:B4 LPS was purchased from Sigma.

Series [3] deals with Candida albicans. The series is described as follows: MIC, same assay. The class given is cell-based. Conditions: fragments of CEMA.
In series [4] the test system is S. aureus. The series is described as follows: microbe, parasite or virus in culture. Type of series: cell-based, Staphylococcus aureus. Conditions: fragments of CEMA, strain not given. Here is the method: (§2) The minimum inhibitory concentrations of (MIC) of CEME, CEMA and melittin were determined for a number of different bacteria (Table 2). Briefly, cells were grown overnight at 37° C. in LB-S (Luria broth without any salt supplement) and diluted one in 10,000 in the same medium to give concentrations of about 10^4 to 10^5 CFU/ml. The broth dilutions were set up in a 96 well microtiter plate by putting 200 μl of LB-S containing the initial concentration of antibiotic or compound in column 1 and 100 μl of the same medium in columns 2-12. The compounds were diluted by taking 100 μl of broth from column 1 and mixing it with column 2, resulting in a one in two dilution. This was continued to column 10. Finally, 10 μl of bacteria were pipetted into columns 1-11, and the plates incubated overnight at 37° C. The next day the plates were scored for growth in the wells, and the MIC determined.

Series [5] concerns E. coli. The series is described as follows: microbe, parasite or virus in culture. The class given is cell-based, Escherichia coli. Conditions: fragments of CEMA, strain not given. On the procedure:
as §2, §1

Series [6] has as its system P. aeruginosa. Put plainly: microbe, parasite or virus in culture. The class given is cell-based, Pseudomonas aeruginosa. Conditions: fragments of CEMA, strain not given. Here is the method:
as §2, §1

The test system of series [7] is P. aeruginosa H309 or E. cloacae 218R1. Type of series: cell-based, Pseudomonas aeruginosa; Enterobacter cloacae. Conditions: 10 μM NPN. The source says:
The second assay determined membrane permeability by the ability of 1-N-phenylnaphthylamine(NPN), a small fluorescent probe, to insert itself into the membrane. Normally, very little NPN can penetrate the outer membrane, but in the presence of a membrane permeabilizer it can insert into the hydrophobic membrane resulting in an increase in fluorescence (FIGS. 7 and 8). This N-phenylnaphthylamine uptake assay was previously described by Loh, et al., Antimicrobial Agents and Chemo., 26:546, 1984. Cells were prepared exactly the same as for the lysozyme lysis assay. 1-N-phenylnaphthylamine(NPN) was dissolved in acetone at a concentration of 500 μM. NPN fluorescence was measured in a Perkin-Elmer 650-10S fluorescent spectrophotometer using excitation and emission wavelengths set to 350 nm and 420 nm respectively, with slit widths of 5 nm. The assay was standardized by adding 20 μl of NPN (final concentration of 10 μM) and 10 μl of 0.64 mg/ml of polymyxin B (final concentration of 6.4 μg/ml) into 1 ml of cells, and adjusting the resulting fluorescence to read 90% deflection (90 arbitrary units). Various compounds were tested by adding 10 μl of different concentrations to a cuvette containing 1 ml of cells and 10 μM NPN. Permeabilizing activity was designated as the total fluorescence minus the fluorescence due to NPN alone. Following the fluorescence measurement, the OD600 of the cells was taken to ensure no significant cell lysis had occurred.

Series [8] shares this test system. The series is described as follows: Lysozyme lysis assay (outer membrane permeabilization). Conditions: 50 μg/ml lysozyme, varying concentrations of compound. Type of series: cell-based, Pseudomonas aeruginosa; Enterobacter cloacae. Here is the method: Membrane permeabilization by polycationic compounds was measured in two different assays. The first assay measured membrane disruption by the ability of lysozyme to reach the periplasm and cause cell lysis. […] The uptake of lysozyme into whole cells due to membrane permeabilization by various compounds was previously described in Hancock, et al., Antimicrobial Agents and Chemo., 19:777, 1981. Overnight cultures of P. aeruginosa H309 or E. cloacae 218R1 grown in LB-S were diluted 1 in 50 in fresh medium and grown to an OD600 =0.5-0.6. The cells were harvested in a Silencer H-103N clinical centrifuge at 1800 g for 10 min, washed once with one volume of assay buffer (5 mM HEPES pH 7.2, 5 mM KCN), and resuspended in the same buffer to an OD600 of 0.5. Assays consisted of 600 μl of cells with 50 μg/ml of chicken egg white lysozyme and varying concentrations of cationic compounds. Cell lysis was measured as a decrease in the OD600 in a Perkin-Elmer dual beam spectrophotometer. Parallel experiments performed without lysozyme enabled the measurement of the lytic activity of the compounds themselves. To test whether or not permeability to lysozyme could be inhibited by divalent cations, various concentrations of MgCl2 were added to the assay after the addition of lysozyme and before the addition of the test compound.

The subject of series [9] is E. coli strain DC2. The series is described as follows: Antibacterial activity on acid-urea gel overlaid with bacteria. Type of series: cell-based, Escherichia coli. The note with it: ≈10^5 E. coli strain DC2, overnight at 37° C. Here is the method: A sample of the partially purified CEME protein was electrophoresed on a 15% acid-urea gel, which separates proteins based on charge and mass (Panyim and Chalkey, Arch. Biochem. Biophys., 130:337, 1969). The pH of the buffer is acidic (≈pH 5.0) and the polarity is reversed such that proteins migrate to the cathode. Therefore, the small cationic peptides run relatively quickly through the gel and thus can be easily identified. Antibacterial activity was tested as previously described (Hultmark, Eur. J. Biochem., 106:7, 1980). The gel was incubated in Mueller Hinton broth+0.2M NaPO4 pH 7.4 for 1 hr. It was overlaid with 5 mls of the same media containing 0.6% agar and ≈10^5 E. coli strain DC2, and then again with 5 ml of the same media containing only 0.6% agar. […] Melittin is used as a positive control due to its antibacterial activity and similarity in size and PI values.

Data on three molecules can be found in patent US5688767A, “Treatment of endotoxin-associated disorders with cationic peptides” (priority 1996, dated 1997).

Regarding `CC[C@H](C)[C@H](NC(=O)CNC(=O)[C@@H](NC(=O)[C@H](CCCCN)NC(=O)[C@H](CCCCN)NC(=O)[C@H](Cc1ccccc1)NC(=O)[C@H](CC(C)C)NC(=O)[C@H](CCCCN)NC(=O)[C@H](Cc1c[nH]c2ccccc12)NC(=O)[C@@H](N)CCCCN)[C@@H](C)CC)C(=O)NCC(=O)N[C@@H](C)C(=O)N[C@H](C(=O)N[C@@H](CC(C)C)C(=O)N[C@@H](CCCCN)C(=O)N[C@H](C(=O)N[C@@H](CC(C)C)C(=O)N[C@H](C(=O)N[C@H](C(=O)NCC(=O)N[C@@H](CC(C)C)C(=O)N1CCC[C@H]1C(=O)N[C@@H](C)C(=O)N[C@@H](CC(C)C)C(=O)N[C@H](C(=O)N[C@@H](CO)C(=O)O)[C@@H](C)CC)[C@@H](C)O)[C@@H](C)O)C(C)C)C(C)C` [CEME], the “survival of mice given peptide alone” value in series [1] (200 μg (8.7 mg/kg) alone) is given as “survived”. In addition, in [1] (no LPS, peptide 200 ug), the “% Mortality” value is on record as 0% and the dead/total was 0/5. For the same molecule, the “MICs, range over strains” value in [2] was in the range of 1 to 16 µg/mL.
For the molecule `CC[C@H](C)[C@H](NC(=O)CN)C(=O)NCC(=O)N[C@@H](C)C(=O)N[C@H](C(=O)N[C@@H](CC(C)C)C(=O)N[C@@H](CCCCN)C(=O)N[C@H](C(=O)N[C@@H](CC(C)C)C(=O)N[C@H](C(=O)N[C@H](C(=O)NCC(=O)N[C@@H](CC(C)C)C(=O)N1CCC[C@H]1C(=O)N[C@@H](C)C(=O)N[C@@H](CC(C)C)C(=O)N[C@@H](CCCCN)C(=O)N[C@@H](CC(C)C)C(=O)N[C@H](C(=O)N[C@@H](CCCCN)C(=O)O)[C@@H](C)O)[C@@H](C)O)[C@@H](C)O)C(C)C)C(C)C` [MA], the MIC entry in series [3], in [4], in series [5] and in series [6] was “greater than 64 ug/ml” in each case.
`CC[C@H](C)[C@H](NC(=O)CN)C(=O)NCC(=O)N[C@@H](C)C(=O)N[C@H](C(=O)N[C@@H](CC(C)C)C(=O)N[C@@H](CCCCN)C(=O)N[C@H](C(=O)N[C@@H](CC(C)C)C(=O)N[C@H](C(=O)N[C@H](C(=O)NCC(=O)N[C@@H](CC(C)C)C(=O)N1CCC[C@H]1C(=O)N[C@@H](C)C(=O)N[C@@H](CC(C)C)C(=O)N[C@H](C(=O)N[C@@H](CO)C(=O)N[C@@H](Cc1c[nH]c2ccccc12)C(=O)N[C@H](C(=O)N[C@@H](CCCCN)C(=O)N[C@@H](CCCNC(=N)N)C(=O)N[C@@H](CCCCN)C(=O)N[C@@H](CCCNC(=N)N)C(=O)N[C@@H](CCC(N)=O)C(=O)N[C@@H](CCC(N)=O)C(N)=O)[C@@H](C)CC)[C@@H](C)CC)[C@@H](C)O)[C@@H](C)O)C(C)C)C(C)C` [Melittin, melittin]: the “activity in opening up the membrane to NPN” value in [7] is listed as “less active”. Besides, in series [8], the “permeabilization of outer membrane to lysozyme” value is “did not appear to be a good permeabilizer”. The “antibacterial activity on overlaid gel” value in series [9] is listed as “zones of clearing”.
